Measurements from patent US12421249B2, “Inhibitors of APOL1 and methods of using same” (Vertex Pharmaceuticals Incorporated, priority 2020, dated 2025).

Target: T1, APOL1 G1 (Homo sapiens, UniProt O14791, I384M/S342G)
T1 sequence (O14791 28-398 S342G/I384M): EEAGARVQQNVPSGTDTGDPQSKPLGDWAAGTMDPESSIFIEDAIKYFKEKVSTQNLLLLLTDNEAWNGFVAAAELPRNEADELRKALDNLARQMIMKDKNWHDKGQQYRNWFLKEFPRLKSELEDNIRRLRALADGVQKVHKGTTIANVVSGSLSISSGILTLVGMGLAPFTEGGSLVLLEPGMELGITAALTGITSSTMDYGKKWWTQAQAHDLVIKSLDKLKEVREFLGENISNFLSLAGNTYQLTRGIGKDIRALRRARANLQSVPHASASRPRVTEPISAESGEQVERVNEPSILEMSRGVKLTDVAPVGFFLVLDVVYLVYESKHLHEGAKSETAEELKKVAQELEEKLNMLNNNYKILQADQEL
Assay: MultiTox-Fluor Multiplex Cytotoxicity Assay in tet-inducible APOL1 G1 T-REx-HEK293 cells (clone G1 DC3.25)
Assay type: cell-based
Set-up: expressed in transfected cells; host or cells: T-REx HEK293, pAAVS1-Puro-APOL1 G1, clone G1 DC3.25
Conditions: Multi-Tox Assay, APOL1 variant cell line not given; for Emax: read-out: Multi-Tox Assay Max Activity (%); for IC50: IP50 = IC50 for cell proliferation
Experimental: The MultiTox-Fluor Multiplex Cytotoxicity Assay is a single-reagent-addition, homogeneous, fluorescence assay that measures the number of live and dead cells simultaneously in culture wells. The assay measures cell viability and cytotoxicity by detecting two distinct protease activities. The live-cell protease activity is restricted to intact viable cells and is measured using a fluorogenic, cell-permeant peptide glycyl-phenylalanylamino fluorocoumarin (GF-AFC) substrate. The substrate enters intact cells, where it is cleaved to generate a fluorescent signal proportional to the number of living cells. […] A second, cell-impermeant, fluorogenic peptide substrate (bis-AAF-R110 Substrate) is used to measure dead-cell protease that has been released from cells that have lost membrane integrity. A ratio of dead to live cells is used to normalize data.
Briefly, the tet-inducible transgenic APOL1 T-REx-HEK293 cell lines were incubated with 50 ng/mL tet to induce APOL1 in the presence of 3-(2-(4-fluorophenyl)-1H-indol-3-yl)-N-((3S,4R)-4-hydroxy-2-oxopyrrolidin-3-yl)propenamide at […], 0.0045, 0.0015, 0.0005 μM in duplicate for 24 hours in a humidified 37° C. incubator. The MultiTox reagent was added to each well and placed back in the incubator for an additional 30 minutes. The plate was read on the EnVision plate reader. A ratio of dead to live cells was used to normalize, and data was imported, analyzed and fit using Genedata Screener (Basel, Switzerland) software. Data was normalized using percent of control, no tet (100% viability), and 50 ng/mL tet treated (0% viability), and fit using Smart Fit. The reagents, methods, and complete protocol for the MultiTox assay are described below.
Human embryonic kidney (HEK293) cell lines containing a tet-inducible expression system (T-REx™; Invitrogen, Carlsbad, CA) and Adeno-associated virus site 1 pAAVS1-Puro-APOL1 G0 or pAAVS1-Puro-APOL1 G1 or pAAVS1-Puro-APOL1 G2 Clones G0 DC2.13, G1 DC3.25, and G2 DC4.44 were grown in a T-225 flask at ˜90% confluency in cell growth media (DMEM, 10% Tet-free FBS, 2 mM L-glutamine, 100 Units/mL penicillin-streptomycin, 5 μg/mL blasticidin S HCl, 1 μg/mL puromycin dihydrochloride). Cells were washed with DPBS and then trypsinized to dissociate from the flask. Media was used to quench the trypsin, cells were then pelleted at 200 g and resuspended in fresh cell assay media (DMEM, 2% Tet-free FBS, 2 mM L-glutamine, 100 Units/mL penicillin-streptomycin). Cells were counted and diluted to 1.17×10^6 cells/mL. 20 μL of cells (23,400/well) were dispensed to every well of a 384-well Poly-D-Lysine coated plate using the Multidrop dispenser. The plates were then incubated at room temperature for one hour.
Tetracycline is needed to induce APOL1 expression. 1 mg/mL tet stock in water was diluted to 250 ng/mL (5×) in cell assay media. 60 μL of cell assay media (no tet control) was dispensed in columns 1 and 24, and 60 μL of 5× tet was dispensed in 384-PP-round bottom plate in columns 2 to 23 with the Multidrop dispenser.
Assay ready plates from the Global Compound Archive were ordered using template 384_APOL1Cell_DR10n2_50 μM_v3. Compounds were dispensed at 200 nL in DMSO. The final top concentration was 10 μM with a 10 point 3-fold dilution in duplicate in the MultiTox assay.
20 μL were transferred from the 5× tet plate to the ARP and mixed, then 5 μL of 5× tet and the compounds were transferred to the cell plate and mixed using the Bravo. The cell plate was placed in the humidified 37° C. 5% CO2 incubator for 24 hours.
The MultiTox-Fluor Multiplex Cytotoxicity Assay was performed in accordance with the manufacturer's protocol. After cells were incubated with tet and compound for 24 hours, 25 μL of 1× MultiTox reagent was added to each well using the Multidrop dispenser; the plates were placed on a plate shaker (600 rpm) for 2 minutes, then centrifuged briefly and placed back in the 37° C. incubator for 30 minutes. […]

| Compound | IC90 [nM] | Emax [%] | IC50 [nM] |
| --- | --- | --- | --- |
| COCC1([C@@H]2C[C@]3(C[C@H](C)N2)OCCc2cc(Cl)sc23)CC1 (racemic) [Compound 376] | 50 to 500 | 99 | 50 to 500 |
| C[C@H]1C[C@@]2(C[C@@H](C3(C#N)CC3)N1)OCCc1cc(Cl)sc12 (racemic) [Compound 377] | > 500 | 98 | 50 to 500 |
| C[C@H]1C[C@@]2(C[C@@H](C3(N(C)C)CC3)N1)OCCc1cc(Cl)sc12 (racemic) [Compound 378] | 50 to 500 | 99 | < 50 |
| CCOC(=O)C1CC1[C@@H]1C[C@]2(C[C@H](C)N1)OCCc1cc(Cl)sc12 (stereo in doubt) [Compound 374] | 50 to 500 | 99 | < 50 |
| CCOC(=O)C1CC1[C@@H]1C[C@]2(C[C@H](C)N1)OCCc1cc(Cl)sc12 (stereo in doubt) [Compound 375] | 50 to 500 |  | < 50 |
| C[C@H]1C[C@@]2(C[C@@H](c3cn(CCO)nn3)N1)OCC(F)(F)c1cc(Cl)sc12 [Compound 361] |  | 98 | < 50 |
| COc1ccc(Cn2cc([C@@H]3C[C@]4(C[C@H](C)N3)OCC(F)(F)c3cc(Cl)sc34)nn2)cc1F [Compound 362] |  | 98 |  |
| C[C@H]1C[C@@]2(C[C@@H](c3cn(C[C@@H](O)CO)nn3)N1)OCC(F)(F)c1cc(Cl)sc12 [Compound 363] |  | 99 | < 50 |
| C[C@H]1C[C@@]2(C[C@@H](c3cn(CC(C)(C)O)nn3)N1)OCC(F)(F)c1cc(Cl)sc12 [Compound 364] |  | 95 |  |
| C[C@H]1C[C@@]2(C[C@@H](c3cn(Cc4cncs4)nn3)N1)OCC(F)(F)c1cc(Cl)sc12 [Compound 365] |  | 99 | < 50 |
| C[C@H]1C[C@@]2(C[C@@H](c3cn(Cc4ccc5nc(O)[nH]c5c4)nn3)N1)OCC(F)(F)c1cc(Cl)sc12 [Compound 366] |  | 95 |  |
| C[C@H]1C[C@@]2(C[C@@H](c3cn(CCC(C)(C)O)nn3)N1)OCC(F)(F)c1cc(Cl)sc12 [Compound 367] |  | 99 | < 50 |
| C[C@H]1C[C@@]2(C[C@@H](c3cn(CC4CCC(=O)NC4)nn3)N1)OCC(F)(F)c1cc(Cl)sc12 (some centres unmarked) [Compound 368] |  | 96 |  |
| C[C@H]1C[C@@]2(C[C@@H](c3cn(CC#N)nn3)N1)OCC(F)(F)c1cc(Cl)sc12 [Compound 369] |  | 98 |  |
| CC(CO)Cn1cc([C@@H]2C[C@]3(C[C@H](C)N2)OCC(F)(F)c2cc(Cl)sc23)nn1 (some centres unmarked) [Compound 370] |  | 99 |  |
| C[C@H](CO)Cn1cc([C@@H]2C[C@]3(C[C@H](C)N2)OCC(F)(F)c2cc(Cl)sc23)nn1 [Compound 371] | 50 to 500 | 99 | < 50 |
| COC(=O)C1([C@@H]2C[C@]3(C[C@H](C)N2)OCCc2cc(Cl)sc23)CC1 [Compound 372, methyl 1-[(2′S, 6′S, 7S)-2-chloro-6′-methyl-spiro[4,5-dihydrothieno[2,3-c]pyran-7,4′-piperidine]-2′-yl]cyclopropanecarboxylate] |  | 92 | > 500 |
| C[C@H]1C[C@@]2(C[C@@H](C3(N)CC3)N1)OCCc1cc(Cl)sc12 [Compound 373, 1-[(2′S,6′S,7S)-2-chloro-6′-methyl-spiro[4,5-dihydrothieno[2,3-c]pyran-7,4′-piperidine]-2′-yl]cyclopropanamine] |  | 99 | < 50 |
| CC(=O)NC1([C@@H]2C[C@]3(C[C@H](C)N2)OCCc2cc(Cl)sc23)CC1 [Compound 379, N-[1-[(2′S,6′S, 7S)-2-chloro-6′-methyl-spiro[4,5-dihydrothieno[2,3-c]pyran-7,4′-piperidine]-2′-yl]cyclopropyl]acetamide] |  | 94 | > 500 |
| C[C@H]1C[C@@]2(C[C@@H](C3(CO)CC3)N1)OCCc1cc(Cl)sc12 [Compound 380, [1-[(2′S,6′S, 7S)-2-chloro-6′-methyl-spiro[4,5-dihydrothieno[2,3-c]pyran-7,4′-piperidine]-2′-yl]cyclopropyl]methanol] |  | 99 | < 50 |
| Cn1cc([C@@H]2C[C@]3(C[C@H](C4CC4)N2)OCCc2cc(Cl)sc23)nn1 [Compound 381, (2′R,6′S, 7S)-2-chloro-2′-cyclopropyl-6′-(1-methyltriazol-4-yl)spiro[4,5-dihydrothieno[2,3-c]pyran-7,4′-piperidine]] |  |  | < 50 |
| Cn1cc([C@@H]2C[C@]3(C[C@H](C4CC4)N2)OC[C@@H](O)c2cc(Cl)sc23)nn1 [Compound 382, (2′R,4S,6′S, 7S)-2-chloro-2′-cyclopropyl-6′-(1-methyltriazol-4-yl)spiro[4,5-dihydrothieno[2,3-c]pyran-7,4′-piperidine]-4-ol] |  |  | < 50 |
| Cn1cc([C@@H]2C[C@]3(C[C@H](C4CC4)N2)OCCc2cc(C(F)(F)F)sc23)nn1 [Compound 383, (2′R,6′S,7S)-2′-cyclopropyl-6′-(1-methyltriazol-4-yl)-2-(trifluoromethyl)spiro[4,5-dihydrothieno[2,3-c]pyran-7,4′-piperidine]] |  |  | < 50 |
| C[C@H]1C[C@@]2(C[C@@H](c3cn(C)nn3)N1)OCC(C)(O)c1cc(C(F)(F)F)sc12 (stereo partly drawn) [Compound 384, (2′S,6′S, 7S)-2′,4-dimethyl-6′-(1-methyltriazol-4-yl)-2-(trifluoromethyl)spiro[5H-thieno[2,3-c]pyran-7,4′-piperidine]-4-ol] |  |  | < 50 |
| C[C@H]1C[C@@]2(C[C@@H](c3cn(C)nn3)N1)OC[C@@H](O)c1cc(C(F)(F)F)sc12 [Compound 386, (2S,4S,4′S,6S)-2-methyl-6-(1-(methyl-^13C-d3)-1H-1,2,3-triazol-4-yl)-2′-(trifluoromethyl)-4′,5′-dihydrospiro[piperidine-4,7′-thieno[2,3-c]pyran]-5-^13C-4′-ol] | < 50 |  | < 50 |
| Cn1cc([C@@H]2C[C@]3(C[C@H](c4ccccc4)N2)OC[C@@H](O)c2cc(Cl)sc23)nn1 [Compound 387, (2′S,4S,6′R, 7S)-2-chloro-2′-(1-methyltriazol-4-yl)-6′-phenyl-spiro[4,5-dihydrothieno[2,3-c]pyran-7,4′-piperidine]-4-ol] |  |  | > 500 |
| Cn1cc(C2CC3(CC(C(F)F)N2)OCCc2cc(Cl)sc23)nn1 (centres unmarked) [Compound 388, 2-chloro-2′-(difluoromethyl)-6′-(1-methyltriazol-4-yl)spiro[4,5-dihydrothieno[2,3-c]pyran-7,4′-piperidine]] |  |  | > 500 |
